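Dose response: 5 concentrations. Exposure: 48 h. Format: 96-well plates. Endpoint: linear interpolation; highest concentration if not reached. TGI marks complete inhibition of growth.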
How the values were obtained:
Experiment in all cases: NCI anticancer screen, dose series, 48 h
CCRF-CEM leukemia = tested on: CCRF-CEM leukemia
HCT-116 colon = tested on: HCT-116 colon
HCT-15 colon = tested on: HCT-15 colon
HS 578T breast = tested on: HS 578T breast
LOX IMVI melanoma = tested on: LOX IMVI melanoma
OVCAR-3 ovarian = tested on: OVCAR-3 ovarian
OVCAR-4 ovarian = tested on: OVCAR-4 ovarian
PC-3 prostate = tested on: PC-3 prostate
SF-295 CNS = tested on: SF-295 CNS
SK-MEL-2 melanoma = tested on: SK-MEL-2 melanoma
SNB-19 CNS = tested on: SNB-19 CNS
SNB-75 CNS = tested on: SNB-75 CNS
UO-31 renal = tested on: UO-31 renal

SMILES	TGI (CCRF-CEM leukemia)	TGI (HCT-116 colon)	TGI (HCT-15 colon)	TGI (HS 578T breast)	TGI (LOX IMVI melanoma)	TGI (OVCAR-3 ovarian)	TGI (OVCAR-4 ovarian)	TGI (PC-3 prostate)	TGI (SF-295 CNS)	TGI (SK-MEL-2 melanoma)	TGI (SNB-19 CNS)	TGI (SNB-75 CNS)	TGI (UO-31 renal)
CC(C)C(NC(=O)C(Cc1ccccc1)NC(=O)[C@H]1CCC[C@H]1NC(=O)C(N)Cc1ccc(O)cc1)C(N)=O (stereo partly drawn)	> 100 µM	> 100 µM	> 100 µM	> 100 µM	> 100 µM	> 100 µM	> 100 µM	> 100 µM	> 100 µM	> 100 µM	> 100 µM	> 100 µM	> 100 µM
S=C1N=C(Cl)/C(=C\c2ccccc2)N1	> 31.6 µM	> 100 µM	> 100 µM	> 100 µM	> 100 µM	> 100 µM	> 100 µM	> 100 µM	> 100 µM	> 100 µM	> 100 µM	> 100 µM	> 100 µM
N#CC(C#N)=Cn1c(=S)[nH]c2ccccc21	> 100 µM	> 100 µM		> 100 µM	> 100 µM	> 100 µM	> 100 µM	> 100 µM	> 100 µM	> 100 µM	> 100 µM	> 100 µM	> 100 µM
CCOP(=O)(OCC)/C(C#N)=C/c1ccnc2ccccc12		> 100 µM	52.4 µM	69.6 µM	> 100 µM	70.6 µM	> 100 µM	35.4 µM	57.9 µM	50.5 µM	57.5 µM	75.8 µM	
CC(=O)c1sc(=N)n(-c2c(C)cccc2C)c1C	> 100 µM		> 100 µM	> 100 µM	> 100 µM	> 100 µM	> 100 µM	> 100 µM		> 100 µM	> 100 µM	> 100 µM	> 100 µM
CC1(C)[C@H]2Cc3cc(-c4cc5c(cn4)[C@@H]4C[C@H]([C@@H]5[C@@H]5c6cc(-c7cc8c(cn7)[C@@H]7C[C@H](C8)C7(C)C)ncc6[C@@H]6C[C@H]5C6(C)C)C4(C)C)ncc3[C@@H]1C2	> 100 µM	> 100 µM	> 100 µM	> 100 µM	> 100 µM	> 100 µM		> 100 µM	> 100 µM	> 100 µM	> 100 µM	> 100 µM	> 100 µM
CN(C)CC1CN=C(NC(=O)Nc2ccccc2)O1 (stereo not drawn)	> 100 µM	> 100 µM	> 100 µM	> 100 µM	> 100 µM		> 100 µM	> 100 µM	> 100 µM	> 100 µM	> 100 µM	> 100 µM	> 100 µM
O=c1[nH]n(Cc2ccccc2Cl)c2ccccc12	> 100 µM	> 100 µM	> 100 µM	> 100 µM	> 100 µM	> 100 µM	> 100 µM	> 100 µM		> 100 µM	> 100 µM	> 100 µM	> 100 µM
CC1OC(OC2C(Oc3cc(O)c4c(c3)O[C@H](c3ccc(O)cc3)CC4=O)OC(CO)C(O)C2O)C(O)C(O)C1O (stereo partly drawn)	> 100 µM	> 100 µM	> 100 µM	> 100 µM	> 100 µM	> 100 µM	> 100 µM	> 100 µM	> 100 µM	> 100 µM		> 100 µM	> 100 µM

Source: PubChem BioAssay (NCI)
